Reference: article PMC12669040, “Tumour-specific STING agonist synthesis via a two-component prodrug system” (Nature Chemistry, 2025)
Where “and” joins values, the source holds several entries; their conditions need not be identical. Identical values can stand only once.

What was measured:
[1] = Colorimetric alkylation rate constant assay with thiol N1; type: physicochemical; settings: for remaining [A]: N1 from calibration curve (N1 in uM); for remaining [A] / remaining [B]: in µM
[2] = Colorimetric alkylation rate constant assay with TNB^2− as non-specific thiol; type: physicochemical; parameters: second-order: unit not given here; settings: for remaining [B]: in µM
[3] = Time 2891 sec, [B]0 = 250, Replicates 1-3
[4] = Time 3071 sec, [B]0 = 250, Replicates 1-3
[5] = Time 3252 sec, [B]0 = 250, Replicates 1-3
[6] = Time 3433 sec, [B]0 = 250, Replicates 1-3
[7] = Time 3613 sec, [B]0 = 250, Replicates 1-3

In the case of `O=C(CCl)Nc1ccc(F)cc1` [Compound C3], the “remaining [A]” value ([1]; Replicate 1, time 576 sec) is reported as 79.3821, the “remaining [B]” value ([1]; Replicate 1, time 576 sec, [B]0 = 250) is reported as 225.262 and the second-order ([1]; Replicate 1, time 576 sec, second-order plot value) is reported as 0.001145. The “remaining [A]” value ([1]; Replicate 1, time 606 sec) was 78.3561, the “remaining [B]” value ([1]; Replicate 1, time 606 sec, [B]0 = 250) was 224.236 and the second-order ([1]; Replicate 1, time 606 sec, second-order plot value) was 0.001203. For the same molecule, the “remaining [A]” value ([1]; Replicate 2, time 576 sec) was 78.9353, the “remaining [B]” value ([1]; Replicate 2, time 576 sec, [B]0=250) was 225.794 and the second-order ([1]; Replicate 2, time 576 sec, second-order plot value) was 0.001128. The “remaining [A]” value ([1]; Replicate 2, time 606 sec) was 77.6031, the “remaining [B]” value ([1]; Replicate 2, time 606 sec, [B]0=250) was 224.461 and the second-order ([1]; Replicate 2, time 606 sec, second-order plot value) was 0.001203. For the same molecule, the “remaining [A]” value ([1]; Replicate 3, time 576 sec) was 80.3332, the “remaining [B]” value ([1]; Replicate 3, time 576 sec, [B]0=250) was 225.786 and the second-order ([1]; Replicate 3, time 576 sec, second-order plot value) was 0.001111. The “remaining [A]” value ([1]; Replicate 3, time 606 sec) was 79.3051, the “remaining [B]” value ([1]; Replicate 3, time 606 sec, [B]0=250) was 224.758 and the second-order ([1]; Replicate 3, time 606 sec, second-order plot value) was 0.001168. For the same molecule, the “remaining [B]” value ([1]; time 0 sec, [B]0 = 250, replicates 1-3) was 246.537 and 247.093 and 245.89, the second-order ([1]; time 0 sec, replicates 1-3) was 0.000164 and 0.0001357 and 0.0001139 and the “remaining [B]” value ([1]; time 30 sec, [B]0 = 250, replicates 1-3) was 245.319 and 244.842 and 244.643. For the same molecule, the second-order ([1]; time 30 sec, replicates 1-3) was 0.0002157 and 0.000185 and 0.0002054, the “remaining [B]” value ([1]; time 60 sec, [B]0 = 250, replicates 1-3) was 243.453 and 243.816 and 242.942 and the second-order ([1]; time 60 sec, replicates 1-3) was 0.0002877 and 0.0002622 and 0.000248. For the same molecule, the “remaining [B]” value ([1]; time 91 sec, [B]0 = 250, replicates 1-3) was 242.316 and 242.334 and 241.723, the second-order ([1]; time 91 sec, replicates 1-3) was 0.0003403 and 0.0003102 and 0.0003108 and the “remaining [B]” value ([1]; time 121 sec, [B]0 = 250, replicates 1-3) was 241.072 and 241.108 and 240.278. For the same molecule, the second-order ([1]; time 121 sec, replicates 1-3) was 0.0004041 and 0.0003637 (2×), the “remaining [B]” value ([1]; time 151 sec, [B]0 = 250, replicates 1-3) was 240.152 and 239.968 and 239.257 and the second-order ([1]; time 151 sec, replicates 1-3) was 0.0004499 and 0.0004039 and 0.0004137. The “remaining [B]” value ([1]; time 182 sec, [B]0 = 250, replicates 1-3) was 239.232 and 238.714 and 238.265, the second-order ([1]; time 182 sec, replicates 1-3) was 0.0004951 and 0.0004446 and 0.0004698 and the “remaining [B]” value ([1]; time 212 sec, [B]0 = 250, replicates 1-3) was 238.15 and 237.631 and 237.245. The second-order ([1]; time 212 sec, replicates 1-3) was 0.0005423 and 0.0004932 and 0.0005191, the “remaining [B]” value ([1]; time 242 sec, [B]0 = 250, replicates 1-3) was 236.96 and 236.491 and 236.366 and the second-order ([1]; time 242 sec, replicates 1-3) was 0.0005835 and 0.0005476 and 0.0005718. The “remaining [B]” value ([1]; time 273 sec, [B]0 = 250, replicates 1-3) was 235.85 and 235.38 and 235.431, the second-order ([1]; time 273 sec, replicates 1-3) was 0.0006281 and 0.0005992 and 0.0006241 and the “remaining [B]” value ([1]; time 303 sec, [B]0 = 250, replicates 1-3) was 234.308 and 234.268 and 234.354. For the same molecule, the second-order ([1]; time 303 sec, replicates 1-3) was 0.0006802 and 0.0006724 and 0.0006773, the “remaining [B]” value ([1]; time 333 sec, [B]0 = 250, replicates 1-3) was 233.361 and 233.157 and 233.277 and the second-order ([1]; time 333 sec, replicates 1-3) was 0.0007331 and 0.0007182 and 0.0007315. The “remaining [B]” value ([1]; time 364 sec, [B]0 = 250, replicates 1-3) was 232.279 and 232.188 and 232.341, the second-order ([1]; time 364 sec, replicates 1-3) was 0.0007799 and 0.0007714 and 0.0007795 and the “remaining [B]” value ([1]; time 394 sec, [B]0 = 250, replicates 1-3) was 231.197 and 231.247 and 230.981. For the same molecule, the second-order ([1]; time 394 sec, replicates 1-3) was 0.0008491 and 0.0008256 and 0.0008268, the “remaining [B]” value ([1]; time 424 sec, [B]0 = 250, replicates 1-3) was 230.602 and 230.05 and 230.442 and the second-order ([1]; time 424 sec, replicates 1-3) was 0.000877 and 0.0008557 and 0.000888. For the same molecule, the “remaining [B]” value ([1]; time 454 sec, [B]0 = 250, replicates 1-3) was 229.357 and 229.309 and 229.478, the second-order ([1]; time 454 sec, replicates 1-3) was 0.0009274 and 0.0009198 and 0.0009265 and the “remaining [B]” value ([1]; time 485 sec, [B]0 = 250, replicates 1-3) was 228.681 and 228.084 and 229.195. The second-order ([1]; time 485 sec, replicates 1-3) was 0.0009424 and 0.0009551 and 0.0009912, the “remaining [B]” value ([1]; time 515 sec, [B]0 = 250, replicates 1-3) was 227.112 and 227.086 and 227.097 and the second-order ([1]; time 515 sec, replicates 1-3) was 0.001056 and 0.001039 and 0.001045. The “remaining [B]” value ([1]; time 545 sec, [B]0 = 250, replicates 1-3) was 226.462 and 226.317 and 225.935, the second-order ([1]; time 545 sec, replicates 1-3) was 0.00112 and 0.001074 and 0.001087 and the “remaining [B]” value ([2]; Replicate 1, 723 sec, [B]0 = 250) was 244.563. The “remaining [B]” value ([2]; Replicate 1, 903 sec, [B]0 = 250) was 244.311, the “remaining [B]” value ([2]; Replicate 1, 1084 sec, [B]0 = 250) was 243.946 and the “remaining [B]” value ([2]; Replicate 1, 1265 sec, [B]0 = 250) was 243.644. The “remaining [B]” value ([2]; Replicate 1, 1445 sec, [B]0 = 250) was 243.291, the “remaining [B]” value ([2]; Replicate 1, 1626 sec, [B]0 = 250) was 242.976 and the “remaining [B]” value ([2]; Replicate 1, 1806 sec, [B]0 = 250) was 242.497. For the same molecule, the “remaining [B]” value ([2]; Replicate 1, 1988 sec, [B]0 = 250) was 242.245, the “remaining [B]” value ([2]; Replicate 1, 2168 sec, [B]0 = 250) was 242.005 and the “remaining [B]” value ([2]; Replicate 1, 2349 sec, [B]0 = 250) was 241.552. For the same molecule, the “remaining [B]” value ([2]; Replicate 1, 2530 sec, [B]0 = 250) was 241.262, the “remaining [B]” value ([2]; Replicate 1, 2710 sec, [B]0 = 250) was 240.985 and the “remaining [B]” value ([2]; Replicate 2, 542 sec, [B]0=250) was 244.808. The “remaining [B]” value ([2]; Replicate 2, 723 sec, [B]0=250) was 244.493, the “remaining [B]” value ([2]; Replicate 2, 903 sec, [B]0=250) was 244.204 and the “remaining [B]” value ([2]; Replicate 2, 1084 sec, [B]0=250) was 243.889. The “remaining [B]” value ([2]; Replicate 2, 1265 sec, [B]0=250) was 243.586, the “remaining [B]” value ([2]; Replicate 2, 1445 sec, [B]0=250) was 243.259 and the “remaining [B]” value ([2]; Replicate 2, 1626 sec, [B]0=250) was 242.931. The “remaining [B]” value ([2]; Replicate 2, 1806 sec, [B]0=250) was 242.666, the “remaining [B]” value ([2]; Replicate 2, 1988 sec, [B]0=250) was 242.326 and the “remaining [B]” value ([2]; Replicate 2, 2168 sec, [B]0=250) was 242.036. The “remaining [B]” value ([2]; Replicate 2, 2349 sec, [B]0=250) was 241.734, the “remaining [B]” value ([2]; Replicate 2, 2530 sec, [B]0=250) was 241.457 and the “remaining [B]” value ([2]; Replicate 2, 2710 sec, [B]0=250) was 241.142. For the same molecule, the “remaining [B]” value ([2]; Replicate 3, 723 sec, [B]0=250) was 244.853, the “remaining [B]” value ([2]; Replicate 3, 903 sec, [B]0=250) was 244.526 and the “remaining [B]” value ([2]; Replicate 3, 1084 sec, [B]0=250) was 244.173. For the same molecule, the “remaining [B]” value ([2]; Replicate 3, 1265 sec, [B]0=250) was 243.82, the “remaining [B]” value ([2]; Replicate 3, 1445 sec, [B]0=250) was 243.568 and the “remaining [B]” value ([2]; Replicate 3, 1626 sec, [B]0=250) was 243.24. The “remaining [B]” value ([2]; Replicate 3, 1806 sec, [B]0=250) was 242.913, the “remaining [B]” value ([2]; Replicate 3, 1988 sec, [B]0=250) was 242.686 and the “remaining [B]” value ([2]; Replicate 3, 2168 sec, [B]0=250) was 242.333. For the same molecule, the “remaining [B]” value ([2]; Replicate 3, 2349 sec, [B]0=250) was 241.955, the “remaining [B]” value ([2]; Replicate 3, 2530 sec, [B]0=250) was 241.627 and the “remaining [B]” value ([2]; Replicate 3, 2710 sec, [B]0=250) was 241.35. The second-order [2, 3] was 0.0003934 and 0.0003816 and 0.000404, the “remaining [B]” value [2, 3] was 241.06 and 240.569 and 240.801 and the second-order [2, 4] was 0.0004067 and 0.0003942 and 0.0004162. The “remaining [B]” value [2, 4] was 240.783 and 240.304 and 240.512, the second-order [2, 5] was 0.0004206 and 0.0004081 and 0.0004267 and the “remaining [B]” value [2, 5] was 240.481 and 240.077 and 240.209. The second-order [2, 6] was 0.0004352 and 0.0004273 and 0.0004471, the “remaining [B]” value [2, 6] was 240.065 and 239.636 and 239.894 and the second-order [2, 7] was 0.0004498 and 0.0004372 and 0.0004612. The “remaining [B]” value [2, 7] was 239.851, the second-order ([2]; Time 3794 sec, [B]0 = 250, Replicates 1-3) was 0.0004633 and 0.0004542 and 0.0004754 and the second-order ([2]; Time 3974 sec, [B]0 = 250, Replicates 1-3) was 0.0004793 and 0.0004648 and 0.0004891. The second-order ([2]; Time 4155 sec, [B]0 = 250, Replicates 1-3) was 0.0004918 and 0.0004819 and 0.0004992, the second-order ([2]; Time 4336 sec, [B]0 = 250, Replicates 1-3) was 0.0005073 and 0.0004944 and 0.000519 and the second-order ([2]; Time 4516 sec, [B]0 = 250, Replicates 1-3) was 0.0005217 and 0.00051 and 0.0005352. For the same molecule, the second-order ([2]; Time 4697 sec, [B]0 = 250, Replicates 1-3) was 0.0005368 and 0.0005292 and 0.0005485, the second-order ([2]; Time 4878 sec, [B]0 = 250, Replicates 1-3) was 0.0005501 and 0.00054 and 0.0005589 and the second-order ([2]; Time 5058 sec, [B]0 = 250, Replicates 1-3) was 0.0005616 and 0.0005558 and 0.0005759. The second-order ([2]; Time 5239 sec, [B]0 = 250, Replicates 1-3) was 0.0005799 and 0.0005704 and 0.0005876, the second-order ([2]; Time 5419 sec, [B]0 = 250, Replicates 1-3) was 0.0005928 and 0.0005784 and 0.0006067 and the second-order ([2]; Time 5600 sec, [B]0 = 250, Replicates 1-3) was 0.000607 and 0.0005999 and 0.0006197. The second-order ([2]; Time 5781 sec, [B]0 = 250, Replicates 1-3) was 0.0006238 and 0.0006104 and 0.000634 and the second-order ([2]; Time 5961 sec, [B]0 = 250, Replicates 1-3) was 0.0006375 and 0.0006271 and 0.0006509.
